Data published in patent publication US10167262B2, “Herbicidal substituted 3-arylpyrazoles” (FMC CORPORATION, priority 2014, dated 2019).

Columns and labels:
Assay type in all cases: in vivo
[1] = test system: sedge, umbrella (small-flower umbrella sedge, Cyperus difformis); assay: Test B flooded paddy test, plant response rating 0-100; conditions: Flood, 250 g ai/ha; scale 0 to 100 (0 no effect, 100 complete control); 13 to 15 days
Method in brief: (§1)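 Pots were flooded to 3 cm above the soil surface at treatment, compound applied directly to the paddy water, and that depth held throughout. Plants were kept in a greenhouse for 13 to 15 days, then visually rated against untreated controls.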

[2] = test system: rice (Oryza sativa); assay: as above; conditions: Flood, 250 g ai/ha; scale 0 to 100 (0 no effect, 100 complete control); 13 to 15 days
Method in brief: as §1

[3] = test system: barnyardgrass (Echinochloa crus-galli); assay: as above; conditions: Flood, 250 g ai/ha; scale 0 to 100 (0 no effect, 100 complete control); 13 to 15 days
Method in brief: as §1

[4] = test system: ducksalad (Heteranthera limosa); assay: as above; conditions: Flood, 250 g ai/ha; scale 0 to 100 (0 no effect, 100 complete control); 13 to 15 days
Method in brief: as §1

[5] = test system: velvetleaf (Abutilon theophrasti); assay: Test A pre-/postemergence greenhouse herbicide test, visual injury rating 0-100
Method in brief: (§2)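 Directed soil spray (pre) and foliar spray (post, 1–2 leaf) of solvent/surfactant-formulated compound; greenhouse ~10 d; visual injury 0–100 vs untreated controls.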

[6] = test system: wheat (Triticum aestivum); assay: as above
Method in brief: as §2

[7] = test system: barnyardgrass (Echinochloa crus-galli); assay: as above
Method in brief: as §2

[8] = test system: morningglory (Ipomoea spp.); assay: as above
Method in brief: as §2

[9] = test system: large (Lg) crabgrass (Digitaria sanguinalis); assay: as above
Method in brief: as §2

[10] = test system: corn (Zea mays); assay: as above
Method in brief: as §2

[11] = test system: pigweed (Amaranthus retroflexus); assay: as above
Method in brief: as §2

[12] = test system: giant foxtail (Setaria faberii); assay: as above
Method in brief: as §2

O=C(c1ccccc1)c1cn(C(=O)Cc2ccccc2)nc1-c1cc(Cl)cc(Cl)c1 [Compound 4]
Plant response rating, Sedge, Umbrella [1]: 0 | Plant response rating, Rice [2]: 0 | Plant response rating, Barnyardgrass [3]: 0 | Plant response rating, Ducksalad [4]: 0 | Plant response rating (0 to 100 scale), Velvetleaf ([5]; Postemergence, 125 g ai/ha): 80 | Plant response rating (0 to 100 scale), Velvetleaf ([5]; Postemergence, 500 g ai/ha): 90 | Velvetleaf plant response rating (0 = no effect, 100 = complete control) ([5]; Preemergence, 125 g ai/ha): 70 | Plant response rating (0 to 100 scale), Velvetleaf ([5]; Preemergence, 500 g ai/ha): 90 | Plant response rating (0 to 100 scale), Wheat ([6]; Postemergence, 125 g ai/ha): 0 | Plant response rating (0 to 100 scale), Wheat ([6]; Postemergence, 500 g ai/ha): 0 | Wheat plant response rating (0 = no effect, 100 = complete control) ([6]; Preemergence, 125 g ai/ha): 0 | Plant response rating (0 to 100 scale), Wheat ([6]; Preemergence, 500 g ai/ha): 0 | Plant response rating (0 to 100 scale), Barnyardgrass ([7]; Postemergence, 125 g ai/ha): 0 | Plant response rating (0 to 100 scale), Barnyardgrass ([7]; Postemergence, 500 g ai/ha): 0 | Barnyardgrass plant response rating (0 = no effect, 100 = complete control) ([7]; Preemergence, 125 g ai/ha): 0 | Plant response rating (0 to 100 scale), Barnyardgrass ([7]; Preemergence, 500 g ai/ha): 0 | Plant response rating (0 to 100 scale), Morningglory ([8]; Postemergence, 125 g ai/ha): 0 | Plant response rating (0 to 100 scale), Morningglory ([8]; Postemergence, 500 g ai/ha): 0 | Morningglory plant response rating (0 = no effect, 100 = complete control) ([8]; Preemergence, 125 g ai/ha): 0 | Plant response rating (0 to 100 scale), Morningglory ([8]; Preemergence, 500 g ai/ha): 0 | Plant response rating (0 to 100 scale), Crabgrass, Large ([9]; Postemergence, 125 g ai/ha): 0 | Plant response rating (0 to 100 scale), Crabgrass, Large ([9]; Postemergence, 500 g ai/ha): 0 | Crabgrass, Large plant response rating (0 = no effect, 100 = complete control) ([9]; Preemergence, 125 g ai/ha): 0 | Plant response rating (0 to 100 scale), Crabgrass, Large ([9]; Preemergence, 500 g ai/ha): 20 | Plant response rating (0 to 100 scale), Corn ([10]; Postemergence, 125 g ai/ha): 0 | Plant response rating (0 to 100 scale), Corn ([10]; Postemergence, 500 g ai/ha): 0 | Corn plant response rating (0 = no effect, 100 = complete control) ([10]; Preemergence, 125 g ai/ha): 0 | Plant response rating (0 to 100 scale), Corn ([10]; Preemergence, 500 g ai/ha): 0 | Plant response rating (0 to 100 scale), Pigweed ([11]; Postemergence, 125 g ai/ha): 70 | Plant response rating (0 to 100 scale), Pigweed ([11]; Postemergence, 500 g ai/ha): 80 | Pigweed plant response rating (0 = no effect, 100 = complete control) ([11]; Preemergence, 125 g ai/ha): 80 | Plant response rating (0 to 100 scale), Pigweed ([11]; Preemergence, 500 g ai/ha): 90 | Plant response rating (0 to 100 scale), Foxtail, Giant ([12]; Postemergence, 125 g ai/ha): 0 | Plant response rating (0 to 100 scale), Foxtail, Giant ([12]; Postemergence, 500 g ai/ha): 10 | Foxtail, Giant plant response rating (0 = no effect, 100 = complete control) ([12]; Preemergence, 125 g ai/ha): 0 | Plant response rating (0 to 100 scale), Foxtail, Giant ([12]; Preemergence, 500 g ai/ha): 30

Clc1ccc(NN=C(c2ccccc2)c2c[nH]nc2-c2cc(Cl)cc(Cl)c2)cc1 [Compound 65]
Plant response rating, Sedge, Umbrella [1]: 0 | Plant response rating, Rice [2]: 0 | Plant response rating, Barnyardgrass [3]: 0 | Plant response rating, Ducksalad [4]: 0 | Plant response rating (0 to 100 scale), Velvetleaf ([5]; Postemergence, 1000 g ai/ha): 90 | Plant response rating (0 to 100 scale), Velvetleaf ([5]; Preemergence, 1000 g ai/ha): 80 | Plant response rating (0 to 100 scale), Wheat ([6]; Postemergence, 1000 g ai/ha): 0 | Plant response rating (0 to 100 scale), Wheat ([6]; Preemergence, 1000 g ai/ha): 0 | Plant response rating (0 to 100 scale), Barnyardgrass ([7]; Postemergence, 1000 g ai/ha): 0 | Plant response rating (0 to 100 scale), Barnyardgrass ([7]; Preemergence, 1000 g ai/ha): 0 | Plant response rating (0 to 100 scale), Morningglory ([8]; Postemergence, 1000 g ai/ha): 30 | Plant response rating (0 to 100 scale), Morningglory ([8]; Preemergence, 1000 g ai/ha): 0 | Plant response rating (0 to 100 scale), Crabgrass, Large ([9]; Postemergence, 1000 g ai/ha): 0 | Plant response rating (0 to 100 scale), Crabgrass, Large ([9]; Preemergence, 1000 g ai/ha): 0 | Plant response rating (0 to 100 scale), Corn ([10]; Postemergence, 1000 g ai/ha): 0 | Plant response rating (0 to 100 scale), Corn ([10]; Preemergence, 1000 g ai/ha): 0 | Plant response rating (0 to 100 scale), Pigweed ([11]; Postemergence, 1000 g ai/ha): 90 | Plant response rating (0 to 100 scale), Pigweed ([11]; Preemergence, 1000 g ai/ha): 80 | Plant response rating (0 to 100 scale), Foxtail, Giant ([12]; Postemergence, 1000 g ai/ha): 0 | Plant response rating (0 to 100 scale), Foxtail, Giant ([12]; Preemergence, 1000 g ai/ha): 0

C=CCn1cc(C(=O)c2cccnc2)c(-c2cc(Cl)cc(Cl)c2)n1 [Compound 8]
Plant response rating, Sedge, Umbrella [1]: 0 | Plant response rating, Rice [2]: 0 | Plant response rating, Barnyardgrass [3]: 0 | Plant response rating, Ducksalad [4]: 0 | Plant response rating (0 to 100 scale), Velvetleaf ([5]; Postemergence, 125 g ai/ha): 10 | Plant response rating (0 to 100 scale), Velvetleaf ([5]; Postemergence, 500 g ai/ha): 30 | Velvetleaf plant response rating (0 = no effect, 100 = complete control) ([5]; Preemergence, 125 g ai/ha): 0 | Plant response rating (0 to 100 scale), Velvetleaf ([5]; Preemergence, 500 g ai/ha): 0 | Plant response rating (0 to 100 scale), Wheat ([6]; Postemergence, 125 g ai/ha): 0 | Plant response rating (0 to 100 scale), Wheat ([6]; Postemergence, 500 g ai/ha): 0 | Wheat plant response rating (0 = no effect, 100 = complete control) ([6]; Preemergence, 125 g ai/ha): 0 | Plant response rating (0 to 100 scale), Wheat ([6]; Preemergence, 500 g ai/ha): 0 | Plant response rating (0 to 100 scale), Barnyardgrass ([7]; Postemergence, 125 g ai/ha): 0 | Plant response rating (0 to 100 scale), Barnyardgrass ([7]; Postemergence, 500 g ai/ha): 0 | Barnyardgrass plant response rating (0 = no effect, 100 = complete control) ([7]; Preemergence, 125 g ai/ha): 0 | Plant response rating (0 to 100 scale), Barnyardgrass ([7]; Preemergence, 500 g ai/ha): 0 | Plant response rating (0 to 100 scale), Morningglory ([8]; Postemergence, 125 g ai/ha): 0 | Plant response rating (0 to 100 scale), Morningglory ([8]; Postemergence, 500 g ai/ha): 0 | Morningglory plant response rating (0 = no effect, 100 = complete control) ([8]; Preemergence, 125 g ai/ha): 0 | Plant response rating (0 to 100 scale), Morningglory ([8]; Preemergence, 500 g ai/ha): 0 | Plant response rating (0 to 100 scale), Crabgrass, Large ([9]; Postemergence, 125 g ai/ha): 0 | Plant response rating (0 to 100 scale), Crabgrass, Large ([9]; Postemergence, 500 g ai/ha): 0 | Crabgrass, Large plant response rating (0 = no effect, 100 = complete control) ([9]; Preemergence, 125 g ai/ha): 0 | Plant response rating (0 to 100 scale), Crabgrass, Large ([9]; Preemergence, 500 g ai/ha): 0 | Plant response rating (0 to 100 scale), Corn ([10]; Postemergence, 125 g ai/ha): 0 | Plant response rating (0 to 100 scale), Corn ([10]; Postemergence, 500 g ai/ha): 0 | Corn plant response rating (0 = no effect, 100 = complete control) ([10]; Preemergence, 125 g ai/ha): 0 | Plant response rating (0 to 100 scale), Corn ([10]; Preemergence, 500 g ai/ha): 0 | Plant response rating (0 to 100 scale), Pigweed ([11]; Postemergence, 125 g ai/ha): 30 | Plant response rating (0 to 100 scale), Pigweed ([11]; Postemergence, 500 g ai/ha): 60 | Pigweed plant response rating (0 = no effect, 100 = complete control) ([11]; Preemergence, 125 g ai/ha): 0 | Plant response rating (0 to 100 scale), Pigweed ([11]; Preemergence, 500 g ai/ha): 50 | Plant response rating (0 to 100 scale), Foxtail, Giant ([12]; Postemergence, 125 g ai/ha): 0 | Plant response rating (0 to 100 scale), Foxtail, Giant ([12]; Postemergence, 500 g ai/ha): 0 | Foxtail, Giant plant response rating (0 = no effect, 100 = complete control) ([12]; Preemergence, 125 g ai/ha): 0 | Plant response rating (0 to 100 scale), Foxtail, Giant ([12]; Preemergence, 500 g ai/ha): 0
